According to PubChem BioAssay AID192 (DTP/NCI, 2004):
Several values for one entry are separate records, joined by “and”; a condition that tells them apart may be missing. Equal values may be shown once. Toxic doses and inconclusive results are not listed. Rule for the calls: active = survival T/C of 150% or more; inactive = T/C below 125% in these data.

Tested on: BDF1 mice, B16 melanoma ip, median survival T/C
Test: NCI In Vivo Anticancer Drug Screen. Data for tumor model B16 Melanoma (intraperitoneal) in B6D2F1 (BDF1) mice
Conditions: endpoint: median survival time, higher = longer survival
Procedure: The antitumor activity of compounds was measured in mice bearing transplantable tumors. Survival or tumor size were measured and the results are expressed as the measurement made in the treated group (T) divided by the measurement made in the vehicle treated control group (C). The tumor model used in this assay is B16 Melanoma (intraperitoneal) in B6D2F1 (BDF1) mice

[1] = dose: 25.0 mg/kg/injection, schedule: Q01DX009 (ip), vehicle: saline with Tween-80
[2] = dose: 50.0 mg/kg/injection, schedule: Q01DX009 (ip), vehicle: saline with Tween-80
[3] = dose: 50.0 mg/kg/injection, schedule: Q04DX003 (ip), vehicle: saline with Tween-80
[4] = dose: 100.0 mg/kg/injection, schedule: Q01DX009 (ip), vehicle: saline with Tween-80
[5] = dose: 100.0 mg/kg/injection, schedule: Q04DX003 (ip), vehicle: saline with Tween-80
[6] = dose: 100.0 mg/kg/injection, schedule: Q01DX009 (ip), vehicle: Klucel (hydroxypropylcellulose) (HPC)
[7] = dose: 200.0 mg/kg/injection, schedule: Q01DX009 (ip), vehicle: Klucel (hydroxypropylcellulose) (HPC)
[8] = dose: 400.0 mg/kg/injection, schedule: Q01DX009 (ip), vehicle: Klucel (hydroxypropylcellulose) (HPC)
[9] = dose: 200.0 mg/kg/injection, schedule: Q01DX009 (ip), vehicle: saline with Tween-80
[10] = dose: 400.0 mg/kg/injection, schedule: Q01DX009 (ip), vehicle: saline with Tween-80
[11] = dose: 12.5 mg/kg/injection, schedule: Q01DX009 (ip), vehicle: saline with Tween-80
[12] = dose: 3.13 mg/kg/injection, schedule: Q01DX009 (ip), vehicle: water
[13] = dose: 12.5 mg/kg/injection, schedule: Q01DX009 (ip), vehicle: water

Measured: T/C

O=C1C=CC(=O)c2c(O)c(CO)c(CO)c(O)c21
inactive: dose: 0.39 mg/kg/injection, schedule: Q01DX009 (ip), vehicle: Klucel (hydroxypropylcellulose) (HPC) 98 % of control | dose: 0.78 mg/kg/injection, schedule: Q01DX009 (ip), vehicle: Klucel (hydroxypropylcellulose) (HPC) 89 % of control | dose: 1.56 mg/kg/injection, schedule: Q01DX009 (ip), vehicle: Klucel (hydroxypropylcellulose) (HPC) 87 % of control

CCN(CC)CCNc1ccc([N+](=O)[O-])cc1[N+](=O)[O-]
inactive: [1] 100 % of control | [2] 113 % of control | [3] 102 % of control | [4] 100 % of control | [5] 100 % of control

O=C(Cc1ccccc1)OCCc1ccccc1
inactive: [6] 103 % of control | [7] 100 % of control | [8] 93 % of control

CCOC(=O)c1c(N)[nH]c(SSc2[nH]c(N)c(C(=O)OCC)c2C(=O)OCC)c1C(=O)OCC
inactive: dose: 75.0 mg/kg/injection, schedule: Q01DX009 (ip), vehicle: saline 89 % of control | dose: 300.0 mg/kg/injection, schedule: Q01DX009 (ip), vehicle: saline 97 % of control

CN(CC(=O)NC(Cc1c[nH]c2ccccc12)C(=O)O)C(=O)OCc1ccccc1 (stereo not given)
inactive: [2] 113 % of control | [4] 106 % of control | [9] 104 % of control | [10] 100 % of control

O=[N+]([O-])c1cccnc1Oc1cccc(C(F)(F)F)c1
inactive: dose: 135.0 mg/kg/injection, schedule: Q04DX003 (ip), vehicle: Klucel (hydroxypropylcellulose) (HPC) 110 % of control | dose: 195.0 mg/kg/injection, schedule: Q04DX003 (ip), vehicle: Klucel (hydroxypropylcellulose) (HPC) 115 % of control | dose: 450.0 mg/kg/injection, schedule: Q04DX003 (ip), vehicle: Klucel (hydroxypropylcellulose) (HPC) 100 % of control

CC(=O)Nc1cc2c(cc1[N+](=O)[O-])-c1ccccc1C2O (stereo not given)
inactive: [3] 105 % of control | [5] 110 % of control | dose: 200.0 mg/kg/injection, schedule: Q04DX003 (ip), vehicle: saline with Tween-80 105 % of control

NC(CO)C(O)c1ccc([N+](=O)[O-])cc1 (stereo not given)
inactive: dose: 100.0 mg/kg/injection, schedule: Q04DX003 (ip), vehicle: Klucel (hydroxypropylcellulose) (HPC) 97 % of control | dose: 200.0 mg/kg/injection, schedule: Q04DX003 (ip), vehicle: Klucel (hydroxypropylcellulose) (HPC) 95 % of control | dose: 400.0 mg/kg/injection, schedule: Q04DX003 (ip), vehicle: Klucel (hydroxypropylcellulose) (HPC) 86 % of control

Cc1ccc(S(=O)(=O)NC(=S)S)cc1
inactive: [11] 88 % of control | [1] 98 % of control and 122 % of control | [2] 97 % of control | [4] 92 % of control and 122 % of control

N#Cc1cccnc1.NCCNCCN.[Br-].[Pt+4]
inactive: dose: 12.5 mg/kg/injection, schedule: Q01DX009 (ip), vehicle: saline 100 % of control | dose: 25.0 mg/kg/injection, schedule: Q01DX009 (ip), vehicle: saline 94 % of control | dose: 50.0 mg/kg/injection, schedule: Q01DX009 (ip), vehicle: saline 99 % of control | dose: 100.0 mg/kg/injection, schedule: Q01DX009 (ip), vehicle: saline 99 % of control | dose: 200.0 mg/kg/injection, schedule: Q01DX009 (ip), vehicle: saline 89 % of control

O=C(O)C(=O)O.O=C(O)C(=O)O.OO.OO.[Nb]
inactive: [12] 100 % of control | dose: 6.25 mg/kg/injection, schedule: Q01DX009 (ip), vehicle: water 101 % of control | [13] 103 % of control | dose: 25.0 mg/kg/injection, schedule: Q01DX009 (ip), vehicle: water 112 % of control | dose: 50.0 mg/kg/injection, schedule: Q01DX009 (ip), vehicle: water 96 % of control

CCCCCCCCCCCCCCCCCS(=O)S(=O)O (stereo not given)
inactive: [4] 113 % of control | [9] 97 % of control | [10] 95 % of control

Cc1cccc(C)c1NC(=O)Nc1ccc(Cl)cc1
inactive: [6] 93 % of control | [7] 93 % of control | [8] 87 % of control

CCOC(=O)C(C)Nc1ccccc1 (stereo not given)
inactive: [6] 102 % of control | [7] 91 % of control | dose: 300.0 mg/kg/injection, schedule: Q01DX009 (ip), vehicle: Klucel (hydroxypropylcellulose) (HPC) 121 % of control

COc1cccc2c1C(=O)c1c(O)c3c(c(O)c1C2=O)C[C@@](O)(/C(C)=N\O)C[C@@H]3OC1CC(N)C(O)C(C)O1 (stereo not given in full)
inactive: [12] 115 % of control | dose: 6.25 mg/kg/injection, schedule: Q01DX001 (ip), vehicle: water 91 % of control
active: dose: 12.5 mg/kg/injection, schedule: Q01DX001 (ip), vehicle: water 213 % of control | [13] 187 % of control | dose: 25.0 mg/kg/injection, schedule: Q01DX001 (ip), vehicle: water 207 % of control | dose: 50.0 mg/kg/injection, schedule: Q01DX001 (ip), vehicle: water 158 % of control

CCOC(=O)C1=C(C)O/C(=C/c2cccc(Cl)c2)C1=O
inactive: dose: 6.25 mg/kg/injection, schedule: Q01DX009 (ip), vehicle: saline with Tween-80 110 % of control | [11] 113 % of control | [1] 113 % of control | [2] 86 % of control and 107 % of control | [4] 97 % of control

O=C(O)C(=O)O.O=C([O-])C(=O)O.O=C([O-])C(=O)O.O=C([O-])C(=O)[O-].[K+].[U]
inactive: dose: 0.5 mg/kg/injection, schedule: Q01DX009 (ip), vehicle: Klucel (hydroxypropylcellulose) (HPC) 98 % of control | dose: 1.0 mg/kg/injection, schedule: Q01DX009 (ip), vehicle: Klucel (hydroxypropylcellulose) (HPC) 97 % of control | dose: 1.0 mg/kg/injection, schedule: Q01DX009 (ip), vehicle: saline 100 % of control | dose: 2.0 mg/kg/injection, schedule: Q01DX009 (ip), vehicle: saline 98 % of control

CCOC(=O)c1ccc(NCC#N)cc1
inactive: [4] 94 % of control | [9] 97 % of control | [10] 105 % of control

CNC(=O)Oc1coc(CCl)cc1=O
inactive: dose: 12.0 mg/kg/injection, schedule: Q01DX009 (ip), vehicle: Klucel (hydroxypropylcellulose) (HPC) 93 % of control | dose: 18.0 mg/kg/injection, schedule: Q01DX009 (ip), vehicle: Klucel (hydroxypropylcellulose) (HPC) 96 % of control | dose: 27.0 mg/kg/injection, schedule: Q01DX009 (ip), vehicle: Klucel (hydroxypropylcellulose) (HPC) 96 % of control | dose: 40.0 mg/kg/injection, schedule: Q01DX009 (ip), vehicle: Klucel (hydroxypropylcellulose) (HPC) 106 % of control

CC[C@H]1CN2CCc3cc(OC)c(OC)cc3[C@@H]2C[C@@H]1C[C@H]1NCCc2cc(OC)c(OC)cc21
inactive: dose: 0.87 mg/kg/injection, schedule: Q01DX009 (ip), vehicle: saline 103 % of control and 104 % of control | dose: 1.75 mg/kg/injection, schedule: Q01DX009 (ip), vehicle: saline 100 % of control and 103 % of control | dose: 3.5 mg/kg/injection, schedule: Q01DX009 (ip), vehicle: saline 105 % of control and 111 % of control | dose: 7.0 mg/kg/injection, schedule: Q01DX009 (ip), vehicle: saline 116 % of control | dose: 7.8 mg/kg/injection, schedule: Q04DX003 (ip), vehicle: saline 108 % of control | dose: 11.2 mg/kg/injection, schedule: Q04DX003 (ip), vehicle: saline 98 % of control | dose: 16.0 mg/kg/injection, schedule: Q04DX003 (ip), vehicle: saline 107 % of control | dose: 22.9 mg/kg/injection, schedule: Q04DX003 (ip), vehicle: saline 104 % of control

CCCCCCOCCN1CCN(CCCN2c3ccccc3Sc3ccc(C(F)(F)F)cc32)CC1
inactive: dose: 0.5 mg/kg/injection, schedule: Q01DX009 (ip), vehicle: saline with Tween-80 112 % of control | dose: 1.0 mg/kg/injection, schedule: Q01DX009 (ip), vehicle: saline with Tween-80 109 % of control | dose: 2.0 mg/kg/injection, schedule: Q01DX009 (ip), vehicle: saline with Tween-80 109 % of control

COc1ccccc1NC(=O)Nc1ccccc1OC
inactive: [6] 89 % of control | [7] 89 % of control | [8] 88 % of control
